Assay results from patent US9212170B2, “4-alkanoylamino-3-pyrazolone derivative” (Daiichi Sankyo Company, Limited, priority 2012, dated 2015).
Counter-ions that a name gives are not always drawn.

Test system: human liver cancer-derived cell line Hep3B
Test: In vitro erythropoietin (EPO) induction activity in Hep3B cells (human EPO ELISA of culture supernatant)
Assay type: cell-based
Settings: test compound 12.5 μM in 0.5% DMSO, 32 hours at 37° C., EPO in culture supernatant expressed as a multiple of the control (0.5% DMSO = 1), read-out: EPO concentration (multiple)
Procedure: In vitro erythropoietin (EPO) induction activity of test compounds was evaluated using human liver cancer-derived cell line Hep3B (ATCC, Manassas, Va.). Hep3B cells were cultured overnight at 37° C. in Dulbecco's modified Eagle's medium (DMEM) in the presence of 10% fetal bovine serum (FBS) (24-well plate, 1.0×10^5 cells/well). After replacing with fresh DMEM (+10% FBS) containing a test compound dissolved in 0.5% dimethyl sulfoxide (DMSO) (prepared to a concentration of 12.5 μM) or a solvent control (0.5% DMSO), the cells were cultured for 32 hours at 37° C. After recovering the culture supernatant, EPO concentration in the culture supernatant was quantified using human EPO ELISA kits (StemCell Technologies). The EPO concentration obtained using each test compound was expressed as a multiple of the EPO concentration obtained using the control.

**Q.** Which fold induction at 12.5 µM does the source give for `CC(=O)Nc1c[nH]n(-c2ccc(C(=O)Nc3ccc(C4CCCCC4)cc3)cn2)c1=O` [Example 1, 6-(4-Acetamido-5-oxo-2,5-dihydro-1H-pyrazol-1-yl)-N-(4-cyclohexylphenyl)nicotinamide] here?
**A.** 37

**Q.** For `CC(=O)Nc1c[nH]n(-c2ccc(C(=O)Nc3ccc(C(C)(C)C)cc3)cn2)c1=O` [Example 2, 6-(4-Acetamido-5-oxo-2,5-dihydro-1H-pyrazol-1-yl)-N-(4-tert-butylphenyl)nicotinamide], which fold induction at 12.5 µM is on record?
**A.** 36

**Q.** With `CC(=O)Nc1c[nH]n(-c2ccc(C(=O)Nc3cccc(C(C)(C)C)c3)cn2)c1=O` [Example 3, 6-(4-Acetamido-5-oxo-2,5-dihydro-1H-pyrazol-1-yl)-N-(3-tert-butylphenyl)nicotinamide] as the compound, how does the fold induction at 12.5 µM read?
**A.** 17

**Q.** How did the fold induction at 12.5 µM turn out when `CC(=O)Nc1c[nH]n(-c2ccc(C(=O)Nc3ccc(C(F)(F)F)cc3)cn2)c1=O` [Example 4, 6-(4-Acetamido-5-oxo-2,5-dihydro-1H-pyrazol-1-yl)-N-[4-(trifluoromethyl)phenyl]nicotinamide] was run?
**A.** 17

**Q.** For `CC(=O)Nc1c[nH]n(-c2ccc(C(=O)Nc3ccc(Cl)cc3)cn2)c1=O` [Example 5, 6-(4-Acetamido-5-oxo-2,5-dihydro-1H-pyrazol-1-yl)-N-(4-chlorophenyl)nicotinamide], which fold induction at 12.5 µM is on record?
**A.** 12

**Q.** How did the fold induction at 12.5 µM turn out when `CC(=O)Nc1c[nH]n(-c2cc(N3CCOCC3)ncn2)c1=O` [Example 6, N-[2-(6-Morpholin-4-ylpyrimidin-4-yl)-3-oxo-2,3-dihydro-1H-pyrazol-4-yl]acetamide formate] was run?
**A.** 13

**Q.** `CC(=O)Nc1c[nH]n(-c2cc(N3CCCCC3)ncn2)c1=O` [Example 7, N-[3-Oxo-2-(6-piperidin-1-ylpyrimidin-4-yl)-2,3-dihydro-1H-pyrazol-4-yl]acetamide formate] was tested. Which fold induction at 12.5 µM did it give?
**A.** 29

**Q.** For `CC(=O)Nc1c[nH]n(-c2ccc(COCc3ccccc3)cn2)c1=O` [Example 8, N-(2-{5-[(Benzyloxy)methyl]pyridin-2-yl}-3-oxo-2,3-dihydro-1H-pyrazol-4-yl)acetamide], which fold induction at 12.5 µM is on record?
**A.** 26

**Q.** Which fold induction at 12.5 µM does the source give for `CC(=O)Nc1c[nH]n(-c2cc(NCCc3ccccc3)ncn2)c1=O` [Example 9, N-(3-Oxo-2-{6-[(2-phenylethyl)amino]pyrimidin-4-yl}-2,3-dihydro-1H-pyrazol-4-yl)acetamide] here?
**A.** 6.1

**Q.** With `CC(=O)Nc1c[nH]n(-c2cc(COCc3ccccc3)ccn2)c1=O` [Example 10, N-(2-{4-[(Benzyloxy)methyl]pyridin-2-yl}-3-oxo-2,3-dihydro-1H-pyrazol-4-yl)acetamide] as the compound, how does the fold induction at 12.5 µM read?
**A.** 23

**Q.** For `CC(=O)Nc1c[nH]n(-c2ccc(C(=O)NCc3cccc(-c4ccccc4)c3)cn2)c1=O` [Example 11, 6-(4-Acetamido-5-oxo-2,5-dihydro-1H-pyrazol-1-yl)-N-(biphenyl-3-ylmethyl)nicotinamide], which fold induction at 12.5 µM is on record?
**A.** 41

**Q.** Which fold induction at 12.5 µM does the source give for `CC(=O)Nc1c[nH]n(-c2ccc(C(=O)NCc3ccc(-c4ccccc4C#N)cc3)cn2)c1=O` [Example 12, 6-(4-Acetamido-5-oxo-2,5-dihydro-1H-pyrazol-1-yl)-N-[(2′-cyanobiphenyl-4-ylmethyl)]nicotinamide] here?
**A.** 2.8

**Q.** How did the fold induction at 12.5 µM turn out when `CC(=O)Nc1c[nH]n(-c2ccc(COCc3ccc(-c4ccccc4C#N)cc3)cn2)c1=O` [Example 13, N-[2-(5-{[(2′-Cyanobiphenyl-4-yl)methoxy]methyl}pyridin-2-yl)-3-oxo-2,3-dihydro-1H-pyrazol-4-yl]acetamide] was run?
**A.** 29

**Q.** How did the fold induction at 12.5 µM turn out when `CC(=O)Nc1c[nH]n(-c2ccc(COCc3ccc(-c4ccccc4)cc3)cn2)c1=O` [Example 14, N-(2-{5-[(Biphenyl-4-ylmethoxy)methyl]pyridin-2-yl}-3-oxo-2,3-dihydro-1H-pyrazol-4-yl)acetamide] was run?
**A.** 22

**Q.** With `CC(=O)Nc1c[nH]n(-c2ccc(COCc3cccc(-c4ccccc4)c3)cn2)c1=O` [Example 15, N-(2-{5-[(Biphenyl-3-ylmethoxy)methyl]pyridin-2-yl}-3-oxo-2,3-dihydro-1H-pyrazol-4-yl)acetamide] as the compound, how does the fold induction at 12.5 µM read?
**A.** 24

**Q.** With `CC(=O)Nc1c(C)[nH]n(-c2ccc(C(=O)Nc3ccc(C(F)(F)F)cc3)cn2)c1=O` [Example 16, 6-(4-Acetamido-3-methyl-5-oxo-2,5-dihydro-1H-pyrazol-1-yl)-N-[4-(trifluoromethyl)phenyl]nicotinamide] as the compound, how does the fold induction at 12.5 µM read?
**A.** 3.4

**Q.** With `CC(=O)Nc1c(C)[nH]n(-c2ccc(C(=O)Nc3ccc(Cl)cc3)cn2)c1=O` [Example 17, 6-(4-Acetamido-3-methyl-5-oxo-2,5-dihydro-1H-pyrazol-1-yl)-N-(4-chlorophenyl)nicotinamide] as the compound, how does the fold induction at 12.5 µM read?
**A.** 4.3

**Q.** How did the fold induction at 12.5 µM turn out when `CC(=O)Nc1c(C)[nH]n(-c2ccc(C(=O)Nc3ccc(Br)cc3)cn2)c1=O` [Example 18, 6-(4-Acetamido-3-methyl-5-oxo-2,5-dihydro-1H-pyrazol-1-yl)-N-(4-bromophenyl)nicotinamide] was run?
**A.** 3.3

**Q.** `CC(=O)Nc1c(C)[nH]n(-c2ccc(C(=O)Nc3ccc(C(C)(C)C)cc3)cn2)c1=O` [Example 19, 6-(4-Acetamido-3-methyl-5-oxo-2,5-dihydro-1H-pyrazol-1-yl)-N-(4-tert-butylphenyl)nicotinamide] was tested. Which fold induction at 12.5 µM did it give?
**A.** 13

**Q.** For `CC(=O)Nc1c(C)[nH]n(-c2ccc(C(=O)Nc3ccc(-c4ccccc4)nc3)cn2)c1=O` [Example 20, 6-(4-Acetamido-3-methyl-5-oxo-2,5-dihydro-1H-pyrazol-1-yl)-N-(6-phenylpyridin-3-yl)nicotinamide], which fold induction at 12.5 µM is on record?
**A.** 3.7

**Q.** With `CC(=O)Nc1c(C)[nH]n(-c2ccc(COCc3ccc(-c4ccccc4C#N)cc3)cn2)c1=O` [Example 21, N-[2-(5-{[(2′-Cyanobiphenyl-4-yl)methoxy]methyl}pyridin-2-yl)-5-methyl-3-oxo-2,3-dihydro-1H-pyrazol-4-yl]acetamide] as the compound, how does the fold induction at 12.5 µM read?
**A.** 20

**Q.** How did the fold induction at 12.5 µM turn out when `Cc1[nH]n(-c2ccc(C(=O)Nc3ccc(-c4ccccc4)nc3)cn2)c(=O)c1NC(=O)CCC(=O)OC(C)(C)C` [Example 22, Tert-butyl 4-[(5-methyl-3-oxo-2-{5-[(6-phenylpyridyl-3-yl)carbamoyl]pyridin-2-yl}-2,3-dihydro-1H-pyrazol-4-yl)amino]-4-oxobutanoate] was run?
**A.** 1.9

**Q.** Which fold induction at 12.5 µM does the source give for `Cc1[nH]n(-c2ccc(C(=O)Nc3ccc(-c4ccccc4)nc3)cn2)c(=O)c1NC(=O)CCC(=O)O` [Example 23, 4-[(5-Methyl-3-oxo-2-{5-[(6-phenylpyridyl-3-yl)carbamoyl]pyridin-2-yl}-2,3-dihydro-1H-pyrazol-4-yl)amino]-4-oxobutanoic acid] here?
**A.** 2.7

**Q.** For `CC(=O)Nc1c(C)[nH]n(-c2ccc(COCc3ccc(C(F)(F)F)cc3)cn2)c1=O` [Example 24, N-{5-Methyl-3-oxo-2-[5-({[4-(trifluoromethyl)benzyl]oxy}methyl)pyridin-2-yl]-2,3-dihydro-1H-pyrazol-4-yl}acetamide], which fold induction at 12.5 µM is on record?
**A.** 22

**Q.** For `CC(=O)Nc1c(C)[nH]n(-c2ccc(Cc3ccc(C(F)(F)F)cc3)cn2)c1=O` [Example 25, N-(5-Methyl-3-oxo-2-{5-[4-(trifluoromethyl)benzyl]pyridin-2-yl}-2,3-dihydro-1H-pyrazol-4-yl)acetamide], which fold induction at 12.5 µM is on record?
**A.** 16

**Q.** Which fold induction at 12.5 µM does the source give for `CC(=O)Nc1c(C)[nH]n(-c2ccc(CCc3ccc(C(F)(F)F)cc3)cn2)c1=O` [Example 26, N-[5-Methyl-3-oxo-2-(5-{2-[4-(trifluoromethyl)phenyl]ethyl}pyridin-2-yl)-2,3-dihydro-1H-pyrazol-4-yl]acetamide] here?
**A.** 22

**Q.** Which fold induction at 12.5 µM does the source give for `CC(=O)Nc1c(C)[nH]n(-c2ccc(/C=C/c3ccc(C(F)(F)F)cc3)cn2)c1=O` [Example 27, N-[5-Methyl-3-oxo-2-(5-{(E)-2-[4-(trifluoromethyl)phenyl]ethenyl}pyridin-2-yl)-2,3-dihydro-1H-pyrazol-4-yl]acetamide] here?
**A.** 2.7
